The values that follow come from patent US20250380696A1, “METHOD FOR CONTROLLING UNDESIRED PLANTS AND PROMOTING GROWTH OF USEFUL PLANTS” (ISHIHARA SANGYO KAISHA, LTD., priority 2022, published 2025).

Molecules are shown by their SMILES.

What all share (format): in vivo
The test system of experiment [1] is forage corn (cultivar: SNOW DENT OTOHA). The experiment can be described thus: (17) Plant growth promotion effect test (corn), Italian ryegrass sown. As to conditions: 20th day after the sowing, above-ground part. An excerpt:
(§1) Upland soil was put in a 1/1,000,000 hectare pot, and seeds of Italian ryegrass (Lolium multiflorum) were sown. When the Italian ryegrass reached 2.5 to 3.0 leaf stage, a water-based suspension containing tiafenacil as the active ingredient, prepared by a conventional method for preparing a water-based suspension, and an emulsifiable concentrate containing S-metolachlor as the active ingredient (tradename: Dual Gold, manufactured by Syngenta) or a wettable powder containing metribuzin as the active ingredient (tradename: SENCOR wettable powder, manufactured by Bayer Crop Science) were diluted with water (in an amount corresponding to 200 liter per hectare) containing 0.5 vol % of an agricultural spreader (tradename: Destiny HC, manufactured by Winfield Solutions, LLC.) and sprayed by a small spray gun (model: W-101-132G, manufactured by ANEST IWATA Corporation). Seeds of forage corn (cultivar: SNOW DENT OTOHA, manufactured by SNOW BRAND SEED Co., Ltd.) were sown in the pot after spraying. On the 20th day after the sowing, the above-ground part of the forage corn was reaped, and its weight was measured to obtain the raw weight.

Experiment [2] concerns goosegrass (Eleusine indica). Description: (10) Herbicidal effect test, pot, spray at 6.5 to 7.8 leaf stage. The conditions noted are these: 13th day after spraying. The text has this:
(§2) [formula] • X: growth inhibition rate when treated with α (g/ha) of compound A, • Y: growth inhibition rate when treated with β (g/ha) of compound B, • E: growth inhibition rate expected when treated with α (g/ha) of compound A and β (g/ha) of compound B (expected value).
Upland soil was put in a 1/1,000,000 hectare pot, and seeds of goosegrass (Eleusine indica) were sown. When the goosegrass reached 6.5 to 7.8 leaf stage, a water-based suspension containing tiafenacil as the active ingredient, prepared by a conventional method for preparing a water-based suspension, and an emulsifiable concentrate containing S-metolachlor as the active ingredient (tradename: Dual Gold, manufactured by Syngenta), a wettable powder containing metribuzin as the active ingredient (tradename: SENCOR wettable powder, manufactured by Bayer Crop Science) or water dispersible granules containing pyroxasulfone as the active ingredient (tradename: Sakura, manufactured by Bayer Crop Science) were diluted with water (in an amount corresponding to 200 liter per hectare) containing 0.5 vol % of an agricultural spreader (tradename: Destiny HC, manufactured by Winfield Solutions, LLC.) and sprayed by a small spray gun (model: W-101-132G, manufactured by ANEST IWATA Corporation). On the 13th day after spraying, the state of growth of the goosegrass was visually observed, and the growth inhibition rate (%) was obtained in accordance with the evaluation standards described in the above (1) herbicidal effect test, and the results are shown in Table 10. Further, the expected value of the growth inhibition rate (%) was calculated in accordance with the Colby's formula described in the above (1) herbicidal effect test, and the results are also shown in Table 10.

Experiment [3] relates to forage corn (cultivar: SNOW DENT OTOHA). Description: (18) Plant growth promotion effect test (corn), Italian ryegrass sown. As to conditions: 21st day after the sowing, above-ground part.
From the text: as §1, with “2.7” for “2.5”, “3.1” for “3.0”, “Syngenta),” for “Syngenta) or”, “powder, manufactured by Bayer Crop Science) or water dispersible granules containing pyroxasulfone as the active ingredient (tradename: Sakura,” for “powder,”, “21st” for “20th”

The subject of experiment [4] is Italian ryegrass (Lolium multiflorum). Description: (9) Herbicidal effect test, pot, spray at 3.2 to 4.0 leaf stage. The conditions noted are these: 6th day after spraying.
From the text: as §2
Upland soil was put in a 1/1,000,000 hectare pot, and seeds of Italian ryegrass (Lolium multiflorum) were sown. When Italian ryegrass reached 3.2 to 4.0 leaf stage, a water-based suspension containing tiafenacil as the active ingredient, prepared by a conventional method for preparing a water-based suspension, and a wettable powder containing tri-allate as the active ingredient, prepared by a conventional method for preparing a wettable powder, an emulsifiable concentrate containing pethoxamid as the active ingredient (tradename: Successor 600, manufactured by Stähler Suisse SA) or an emulsifiable concentrate containing dimethenamid-P as the active ingredient (tradename: Fieldstar P emulsifiable concentrate, manufactured by BASF) were diluted with water (in an amount corresponding to 200 liter per hectare) containing 0.5 vol % of an agricultural spreader (tradename: Destiny HC, manufactured by Winfield Solutions, LLC.) and sprayed by a small spray gun (model: W-101-132G, manufactured by ANEST IWATA Corporation). On the 6th day after spraying, the state of growth of the Italian ryegrass was visually observed, and the growth inhibition rate (%) was obtained in accordance with the evaluation standards described in the above (1) herbicidal effect test, and the results are shown in Table 9. Further, the expected value of the growth inhibition rate (%) was calculated in accordance with the Colby's formula described in the above (1) herbicidal effect test, and the results are also shown in Table 9.

Experiment [5] relates to forage corn (cultivar: SNOW DENT OTOHA). The experiment can be described thus: (19) Plant growth promotion effect test (corn), Italian ryegrass sown. As to conditions: 21st day after the sowing, above-ground part. An excerpt: Upland soil was put in a 1/1,000,000 hectare pot, and seeds of Italian ryegrass (Lolium multiflorum) were sown. When the Italian ryegrass reached 3.2 to 3.7 leaf stage, a water-based suspension containing tiafenacil as the active ingredient, prepared by a conventional method for preparing a water-based suspension, and a wettable powder containing tri-allate as the active ingredient, prepared by a conventional method for preparing a wettable powder or an emulsifiable concentrate containing pethoxamid as the active ingredient (tradename: Successor 600, manufactured by Stähler Suisse SA) were diluted with water (in an amount corresponding to 200 liter per hectare) containing 0.5 vol % of an agricultural spreader (tradename: Destiny HC, manufactured by Winfield Solutions, LLC.) and sprayed by a small spray gun (model: W-101-132G, manufactured by ANEST IWATA Corporation). Seeds of forage corn (cultivar: SNOW DENT OTOHA, manufactured by SNOW BRAND SEED Co., Ltd.) were sown in the pot after spraying. On the 21st day after the sowing, the above-ground part of the forage corn was reaped, and its weight was measured to obtain the raw weight.

Take `CCc1cccc(C)c1N(C(=O)CCl)[C@@H](C)COC` [S-metolachlor]: the “Raw weight (g) of forage corn” value in experiment [1] (Dose 750 g/ha) was 5.1 g; in experiment [3] (Dose 7.5 g/ha), 3.5 g; in experiment [3] (Dose 750 g/ha) it was 3.1 g. In addition, the “Growth inhibition rate (%) Measured value” in experiment [2] (Dose 7.5 g/ha), in experiment [2] (Dose 375 g/ha) and in experiment [2] (Dose 750 g/ha) was 7% each time.
In the case of `COC[C@H](C)N(C(=O)CCl)c1c(C)csc1C` [dimethenamid-P], the results for the “Growth inhibition rate (%) Measured value” in experiment [4] (Dose 500 g/ha) and in experiment [4] (Dose 625 g/ha) were 33% and 40%, respectively.
For the molecule `CSc1nnc(C(C)(C)C)c(=O)n1N` [metribuzin], the figures for the “Raw weight (g) of forage corn” value in experiment [1] (Dose 18.75 g/ha), in experiment [3] (Dose 225 g/ha) and in experiment [3] (Dose 550 g/ha) were 6.2 g, 4.7 g and 5.6 g, respectively. Further, the inhibition at 9.38 g/ha in experiment [2] (Eleusine indica, Dose 9.38 g/ha, read-out: Growth inhibition rate (%) Measured value) was 7%. Further, the inhibition at 550 g/ha in experiment [2] (Eleusine indica, Dose 550 g/ha, read-out: Growth inhibition rate (%) Measured value) stood at 68%. Besides, in experiment [2] (Eleusine indica, Dose 1100 g/ha, read-out: Growth inhibition rate (%) Measured value), the inhibition at 1100 g/ha came to 72%.
Regarding `CCOCCN(C(=O)CCl)C(=C(C)C)c1ccccc1` [pethoxamid], the figures for the “Raw weight (g) of forage corn” value in experiment [5] (Dose 93.8 g/ha), in experiment [5] (Dose 375 g/ha) and in experiment [5] (Dose 750 g/ha) were 3.4 g, 2.2 g and 3.6 g, respectively. Also, the “Growth inhibition rate (%) Measured value” is recorded as 5% in experiment [4] (Dose 312.5 g/ha), 3% in experiment [4] (Dose 437.5 g/ha) and 8% in experiment [4] (Dose 625 g/ha).
Take `Cn1nc(C(F)(F)F)c(CS(=O)(=O)C2=NOC(C)(C)C2)c1OC(F)F` [pyroxasulfone]: the inhibition at 7.5 g/ha in experiment [2] (Eleusine indica, Dose 7.5 g/ha, read-out: Growth inhibition rate (%) Measured value) was 0%. In addition, in experiment [2] (Eleusine indica, Dose 250 g/ha, read-out: Growth inhibition rate (%) Measured value), the inhibition at 250 g/ha turned out to be 2%. In experiment [2] (Eleusine indica, Dose 500 g/ha, read-out: Growth inhibition rate (%) Measured value), the inhibition at 500 g/ha worked out at 2%. Besides, the “Raw weight (g) of forage corn” value in experiment [3] (Dose 7.5 g/ha) was found to be 5.8 g; in experiment [3] (Dose 125 g/ha), 3.3 g; in experiment [3] (Dose 250 g/ha), 3.8 g.
Consider `COC(=O)CCNC(=O)C(C)Sc1cc(-n2c(=O)cc(C(F)(F)F)n(C)c2=O)c(F)cc1Cl` (centres unmarked) [tiafenacil], for which the “Raw weight (g) of forage corn” value in experiment [5] (Dose 6.25 g/ha) came out at 3.9 g; in experiment [1] (Dose 12.5 g/ha) it was 8.5 g; in experiment [3] (Dose 6.25 g/ha), 3.2 g. Also, the “Growth inhibition rate (%) Measured value” in experiment [2] (Dose 6.25 g/ha) and in experiment [4] (Dose 6.25 g/ha) was 30% in each case.
As for `CC(C)N(C(=O)SCC(Cl)=C(Cl)Cl)C(C)C` [tri-allate], the “Raw weight (g) of forage corn” value in experiment [5] (Dose 75 g/ha) worked out at 2.6 g; in experiment [5] (Dose 625 g/ha) it was 2.2 g; in experiment [5] (Dose 1250 g/ha) it was 2.5 g. For the same molecule, in experiment [4] (Lolium multiflorum, Dose 937.5 g/ha, read-out: Growth inhibition rate (%) Measured value), the inhibition at 937.5 g/ha stood at 3%.

For orientation: inhibition means the change of the read-out against control, counted positive when it falls.
